The nature of the series: Human HepG2 cell viability assay in 384 well format. It is filed as toxicity, cell-based. Details: dose 125 nL, time 70.5 hour; concentration not given beside the values. The following applies: HepG2 cells, read-out: Inhibition.

The text below walks through data of ChEMBL document CHEMBL3507680, “University of Dundee, Gates Library screen for HepG2 cell viability”.

Structures are written as SMILES.

Regarding `CC(C)c1cc(NCC2(N3CCOCC3)CCCCC2)ncn1`, the cytotoxicity at 70.5 h amounted to 45.2%.

Turning to `CC(C)(C)c1cc(=O)[nH]c(-c2ccccc2CN2CCC[C@@H](O)C2)n1`, the cytotoxicity at 70.5 h is -2.12%.

As to `COCCc1noc(-c2cn(Cc3ccc(OC)cc3)nn2)n1`, the cytotoxicity at 70.5 h was determined as 7.6%.

For `CCCc1cc(C(=O)N2Cc3ccccc3C2)[nH]n1`, the cytotoxicity at 70.5 h is 6.06%.

As for `O=C1CC(C(=O)O)C2(CCN(C(=O)Nc3ccccc3Cl)CC2)N1` (stereo not drawn), the cytotoxicity at 70.5 h is -2.72%.

As to `O=C(Cn1ccc2ncccc2c1=O)N1CCSCC1`, the cytotoxicity at 70.5 h stood at 29.2%.

For the compound `CN(C)CC1(O)CCCN(C(=O)CCc2nc3cccnc3n2C)C1` (stereo not drawn), the cytotoxicity at 70.5 h is -9.56%.

Turning to `c1cncc(NCCNC2CCCNC2)c1` (stereo not drawn), the cytotoxicity at 70.5 h worked out at 2.18%.

Turning to `COCCn1cnnc1CCn1ccnc1-c1ccccc1Cl`, the cytotoxicity at 70.5 h came out at 5.9%.

With `O=C1NCCc2c1sc1ccc(C(=O)N3CC[C@H](CO)[C@H](O)C3)cc21`, the cytotoxicity at 70.5 h is -2.24%.

With `CN1CCC(N(CCc2ccccc2)C(=O)c2ccoc2)CC1`, the cytotoxicity at 70.5 h is -7.47%.

For the compound `COc1cccc(C(=O)N2CCN(C(=O)CCCc3cn[nH]c3)CC2)c1`, the cytotoxicity at 70.5 h is -2.77%.

Take `Cc1nc(O)cc(CN2CC=C(c3cnn(C(C)(C)C)c3)CC2)n1`: the cytotoxicity at 70.5 h was -10.5%.

In the case of `CCC(C)N(Cc1cccnc1)Cc1cc2c(cc1OC)OCO2` (stereo not drawn), the cytotoxicity at 70.5 h was found to be 0.778%.

Turning to `O=C(c1cccc(S(=O)(=O)NC[C@@H]2C[C@H](F)CN2)c1)N1CCCCC1`, the cytotoxicity at 70.5 h came out at 4.39%.

`O=C(c1ccc2c(c1)CCC2)N1CCN(c2ccc(Cl)cn2)CC1`: the cytotoxicity at 70.5 h came to 6.01%.

For `Cc1nn(CCO)c(C)c1CN1CCN(C2CCCCC2)C(=O)C1`, the cytotoxicity at 70.5 h was found to be 0.129%.

For the compound `OC[C@@H]1CCCN1c1ccc(-c2nc(COc3ccccc3)no2)cn1`, the cytotoxicity at 70.5 h worked out at 1.55%.

As for `CCC(C)N(Cc1ccsc1)C(=O)c1ccc2[nH]nnc2c1` (stereo not drawn), the cytotoxicity at 70.5 h came to 24.9%.

Turning to `O=C(c1ccncc1F)N1CCCC(c2nccn2CC2CCC2)C1` (stereo not drawn), the cytotoxicity at 70.5 h is -21.7%.

For `CC(C)c1noc(-c2ccc(NCCCN3CCCC(O)C3)nc2)n1` (stereo not drawn), the cytotoxicity at 70.5 h is -6.37%.

For `O=C(NCCn1ccnc1-c1cc2n(n1)CCNC2)c1ccncc1`, the cytotoxicity at 70.5 h was -5.81%.

For the compound `O=C(c1cn2cc(Cl)ccc2n1)N1CCC(CCn2cccn2)CC1`, the cytotoxicity at 70.5 h was determined as 19.9%.

On to `CN(C)C(C(=O)N1CCN(CC(F)(F)F)CC1)c1ccccc1F` (stereo not drawn), for which the cytotoxicity at 70.5 h is -1.96%.

Regarding `Cc1cc(C)n(-c2ccc(C(=O)NCC(CO)Cc3cccs3)cc2)n1` (stereo not drawn), the cytotoxicity at 70.5 h is -8%.

In the case of `Cc1cc(C(=O)N2CCc3ncnc(N4CCSCC4)c3CC2)[nH]n1`, the cytotoxicity at 70.5 h is -5.82%.

With `COc1nc2ccccc2cc1C1CC(=O)Nc2n[nH]c(C3CCC3)c21` (stereo not drawn), the cytotoxicity at 70.5 h turned out to be 4.02%.

On to `CNCCN1C(=O)CC[C@H]2CN(c3cnc4ccccc4n3)CC[C@H]21`, for which the cytotoxicity at 70.5 h was -2.89%.

For `Cc1ccc2nc(C)c(C)c(C(=O)N[C@H]3COC[C@@H]3N3CCCC3)c2c1`, the cytotoxicity at 70.5 h was -3.96%.

As to `COc1ncccc1C(=O)N1CCC(c2nc3c(C)cccc3[nH]2)CC1`, the cytotoxicity at 70.5 h is -6.55%.

Turning to `CCN(CCn1cccn1)Cc1nc(-c2ccoc2)oc1C`, the cytotoxicity at 70.5 h came out at 14%.

On to `Cc1cc(C2CCCN2Cc2cccc(C(=O)Nc3nccs3)c2)no1` (stereo not drawn), for which the cytotoxicity at 70.5 h is -14.5%.

Regarding `Cc1nc(CN2CC[C@@H]3[C@@H](CCC(=O)N3CCc3c[nH]cn3)C2)co1`, the cytotoxicity at 70.5 h came to 13%.

As for `Nc1nc(O)cc(N2CCC(c3cc(Cc4ccccc4)n[nH]3)CC2)n1`, the cytotoxicity at 70.5 h was -3.99%.

As to `CC(=O)Nc1ccc(CN2CCc3[nH]cnc3C2c2nccn2C)cc1` (stereo not drawn), the cytotoxicity at 70.5 h is -3.14%.

For `CCn1ncc(CNC(=O)c2cn(CCC3CCCCN3)nn2)c1C` (stereo not drawn), the cytotoxicity at 70.5 h is -6.28%.

Consider `CCCc1cc(CNC(=O)Cc2cc(C)no2)on1`, for which the cytotoxicity at 70.5 h is 1.19%.

`CCc1noc(CN(CC)Cc2cc3cc(C)ccc3[nH]c2=O)n1`: the cytotoxicity at 70.5 h is -10.7%.
